Assay results reported in US11618747B2, “LXR modulators with bicyclic core moiety” (OrsoBio, Inc., priority 2018, dated 2023).

biological target: T1, full length (FL) LXRβ (Homo sapiens, UniProt P55055, DUP175-175); assay: LXR Gal4 reporter transient transfection assay (FL-M2H Gal4β); type: cell-based; settings: HEK293 cells, full length LXRβ; read-out: FL-M2H Gal4β (EC50 range)
T1 construct: the full length (FL) proteins of LXRα (amino acids 1-447); NP005684; NP009052; expressed in transfected cells; host or cells: HEK293
T1 sequence (P55055 with tags, fused parts or gaps DUP175-175): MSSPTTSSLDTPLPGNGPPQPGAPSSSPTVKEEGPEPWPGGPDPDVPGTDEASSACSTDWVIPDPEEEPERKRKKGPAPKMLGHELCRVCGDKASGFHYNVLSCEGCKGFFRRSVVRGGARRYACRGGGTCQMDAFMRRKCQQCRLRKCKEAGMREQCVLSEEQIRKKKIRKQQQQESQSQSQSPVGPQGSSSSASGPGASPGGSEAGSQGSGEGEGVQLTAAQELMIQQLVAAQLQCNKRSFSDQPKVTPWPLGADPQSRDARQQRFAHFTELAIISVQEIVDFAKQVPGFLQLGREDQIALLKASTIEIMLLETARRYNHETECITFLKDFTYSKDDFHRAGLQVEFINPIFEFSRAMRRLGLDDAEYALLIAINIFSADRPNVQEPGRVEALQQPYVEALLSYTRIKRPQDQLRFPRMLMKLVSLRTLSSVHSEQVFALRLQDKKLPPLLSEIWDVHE
In short: (§1)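 Mammalian two-hybrid in HEK293: AD-LXR (FL or LBD) + BD-cofactor (SRC1 coactivator or NCoR corepressor domain), pFR-Luc reporter, pRL-CMV normaliser; PEI transfection. Compound added 4 h later (DMSO ≤0.2% final), 16 h incubation at 37 °C. Firefly/Renilla luminescence measured sequentially in lysate.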

| Structure (SMILES) | EC50 |
| --- | --- |
| Cc1ccc(S(=O)(=O)n2c(-c3cccc(C4CC4C(=O)O)c3)c(-c3ccsc3C#N)c3cccnc32)cc1 (stereo not drawn) [4/2] | 100 to 1000 nM |
| Cc1ccc(S(=O)(=O)n2c(-c3cccc(N4CC(C(=O)O)C4)c3)c(-c3ccsc3C#N)c3sccc32)cc1 [4/3] | < 100 nM |
| Cc1ccc(S(=O)(=O)n2c(-c3cccc(-c4ccc(CO)c(S(=O)(=O)CC(=O)O)c4)c3)c(-c3ccsc3C#N)c3ccccc32)cc1 [5/1] | 100 to 1000 nM |
| Cc1ccc(S(=O)(=O)n2c(-c3cccc(C45CC(C(=O)O)(C4)C5)c3)c(-c3ccsc3C#N)c3ccccc32)cc1 [5/2] | 100 to 1000 nM |
| Cc1ccc(S(=O)(=O)n2c(-c3cccc(C#CC(C)(C)C(=O)O)c3)c(-c3ccsc3C#N)c3cc(F)ccc32)cc1 [5/4] | < 100 nM |
| Cc1ccc(S(=O)(=O)n2c(-c3cccc(-n4ccc(C(=O)O)cc4=O)c3)c(-c3ccsc3C#N)c3cc(F)ccc32)cc1 [5/5] | 100 to 1000 nM |
| Cc1ccc(S(=O)(=O)n2c(-c3ccnc(-c4ccc(C(=O)O)cc4)c3)c(-c3ccsc3C#N)c3cc(F)ccc32)cc1 [5/6] | < 100 nM |
| N#Cc1sccc1-c1c(-c2cccc(N3CC(C(=O)O)C3)c2)n(S(=O)(=O)c2ccc(Cl)cc2)c2ccc(F)cc12 [5/7] | < 100 nM |
| COc1ccc(S(=O)(=O)n2c(-c3cccc(N4CC(C(=O)O)C4)c3)c(-c3ccsc3C#N)c3cc(F)ccc32)cn1 [5/8] | 100 to 1000 nM |
| Cc1ccc(S(=O)(=O)n2c(-c3cccc(N4CC[C@@H](C(=O)O)C[C@H]4C)c3)c(-c3ccsc3C#N)c3cc(F)ccc32)cc1 [5/9] | < 100 nM |
| O=C(O)c1ccc(-c2cccc(-c3c(-c4ncccc4N4CC(O)C4)c4cc(F)ccc4n3S(=O)(=O)c3ccc(C(F)F)cc3)c2)c(Cl)c1 [5/10] | 100 to 1000 nM |
| N#Cc1sccc1-c1c(-c2cccc(C3CC3C(=O)NO)c2)n(S(=O)(=O)c2ccc(Cl)cc2)c2ccccc12 (stereo not drawn) [6/1] | < 100 nM |
| CC(C)(C)OC(=O)CNC(=O)c1ccc(-c2cccc(-c3c(-c4c(C#N)cccc4C#N)c4cc(F)ccc4n3S(=O)(=O)c3ccc(C(F)F)cc3)c2)c(Cl)c1 [6/3] | < 100 nM |
| Cc1ccc(S(=O)(=O)n2c(-c3cccc(-c4ccc(CN(C)C)cc4)c3)c(-c3ccsc3C#N)c3cc(F)ccc32)cc1 [8/1] | < 100 nM |
| O=C(O)c1ccc(-c2cccc(-c3c(-c4ccccc4C4COC4)c4cnccc4n3S(=O)(=O)c3ccc(C(F)F)cc3)c2)c(Cl)c1 [8/3] | < 100 nM |
| N#Cc1ccccc1-c1c(-c2cccc(-c3ccc(C(=O)O)cc3Cl)c2)n(S(=O)(=O)c2ccc(C(F)F)cc2)c2cccnc12 [8/7] | < 100 nM |
| N#Cc1sccc1-c1c(-c2cccc(-c3ccc(C(=O)NCCS(=O)(=O)O)cc3Cl)c2)n(S(=O)(=O)c2ccc(C(F)F)cc2)c2ccc(F)cc12 [10/3] | < 100 nM |

biological target: T2, LXRβ ligand-binding domain (Homo sapiens, UniProt P55055, DUP175-175); assay: TR-FRETβ activity assay (NCoA3 coactivator peptide recruitment); type: biochemical; settings: TR-FRET, 1 μM 24(S)-25-epoxycholesterol prestimulation; read-out: FRETβ (EC50 range)
T2 construct: amino acids 156-461; NP009052; made in house; host or cells: E. coli
T2 sequence (P55055 with tags, fused parts or gaps DUP175-175 limits assumed): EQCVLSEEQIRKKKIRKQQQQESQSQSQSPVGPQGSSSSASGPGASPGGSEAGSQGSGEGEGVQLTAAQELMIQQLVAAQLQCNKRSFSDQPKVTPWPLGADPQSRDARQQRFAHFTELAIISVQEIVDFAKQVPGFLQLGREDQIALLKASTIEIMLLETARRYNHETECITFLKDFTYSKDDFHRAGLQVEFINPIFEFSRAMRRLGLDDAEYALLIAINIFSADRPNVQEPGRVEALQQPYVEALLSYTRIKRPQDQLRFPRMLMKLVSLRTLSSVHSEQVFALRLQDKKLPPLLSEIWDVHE
In short: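 GST-tagged human LXRβ LBD (aa 156-461, E. coli) at 76 nM with 400 nM biotinylated NCoA3 peptide in Tris/HCl pH 6.8, 240 mM KCl, BSA, 0.002% Triton-X-100, plus 1 μM 24(S)-25-epoxycholesterol as prestimulating agonist. Compounds at 50 μM down to 0.002 μM, 1 h at 4 °C. Coactivator recruitment by TR-FRET (Tb cryptate/XL665, 615/665 nm), triplicates.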

| Structure (SMILES) | EC50 |
| --- | --- |
| Cc1ccc(S(=O)(=O)n2c(-c3cccc(C4CC4C(=O)O)c3)c(-c3ccsc3C#N)c3cccnc32)cc1 (stereo not drawn) [4/2] | 1000 to 10000 nM |
| Cc1ccc(S(=O)(=O)n2c(-c3cccc(N4CC(C(=O)O)C4)c3)c(-c3ccsc3C#N)c3sccc32)cc1 [4/3] | 1000 to 10000 nM |
| Cc1ccc(S(=O)(=O)n2c(-c3cccc(-c4ccc(CO)c(S(=O)(=O)CC(=O)O)c4)c3)c(-c3ccsc3C#N)c3ccccc32)cc1 [5/1] | 100 to 1000 nM |
| Cc1ccc(S(=O)(=O)n2c(-c3cccc(C45CC(C(=O)O)(C4)C5)c3)c(-c3ccsc3C#N)c3ccccc32)cc1 [5/2] | 100 to 1000 nM |
| Cc1ccc(S(=O)(=O)n2c(-c3cccc(C#CC(C)(C)C(=O)O)c3)c(-c3ccsc3C#N)c3cc(F)ccc32)cc1 [5/4] | 1000 to 10000 nM |
| Cc1ccc(S(=O)(=O)n2c(-c3cccc(-n4ccc(C(=O)O)cc4=O)c3)c(-c3ccsc3C#N)c3cc(F)ccc32)cc1 [5/5] | 100 to 1000 nM |
| Cc1ccc(S(=O)(=O)n2c(-c3ccnc(-c4ccc(C(=O)O)cc4)c3)c(-c3ccsc3C#N)c3cc(F)ccc32)cc1 [5/6] | 100 to 1000 nM |
| N#Cc1sccc1-c1c(-c2cccc(N3CC(C(=O)O)C3)c2)n(S(=O)(=O)c2ccc(Cl)cc2)c2ccc(F)cc12 [5/7] | 100 to 1000 nM |
| COc1ccc(S(=O)(=O)n2c(-c3cccc(N4CC(C(=O)O)C4)c3)c(-c3ccsc3C#N)c3cc(F)ccc32)cn1 [5/8] | 100 to 1000 nM |
| Cc1ccc(S(=O)(=O)n2c(-c3cccc(N4CC[C@@H](C(=O)O)C[C@H]4C)c3)c(-c3ccsc3C#N)c3cc(F)ccc32)cc1 [5/9] | 100 to 1000 nM |
| O=C(O)c1ccc(-c2cccc(-c3c(-c4ncccc4N4CC(O)C4)c4cc(F)ccc4n3S(=O)(=O)c3ccc(C(F)F)cc3)c2)c(Cl)c1 [5/10] | 1000 to 10000 nM |
| N#Cc1sccc1-c1c(-c2cccc(C3CC3C(=O)NO)c2)n(S(=O)(=O)c2ccc(Cl)cc2)c2ccccc12 (stereo not drawn) [6/1] | 100 to 1000 nM |
| CC(C)(C)OC(=O)CNC(=O)c1ccc(-c2cccc(-c3c(-c4c(C#N)cccc4C#N)c4cc(F)ccc4n3S(=O)(=O)c3ccc(C(F)F)cc3)c2)c(Cl)c1 [6/3] | < 100 nM |
| Cc1ccc(S(=O)(=O)n2c(-c3cccc(-c4ccc(CN(C)C)cc4)c3)c(-c3ccsc3C#N)c3cc(F)ccc32)cc1 [8/1] | 100 to 1000 nM |
| O=C(O)c1ccc(-c2cccc(-c3c(-c4ccccc4C4COC4)c4cnccc4n3S(=O)(=O)c3ccc(C(F)F)cc3)c2)c(Cl)c1 [8/3] | 100 to 1000 nM |
| N#Cc1ccccc1-c1c(-c2cccc(-c3ccc(C(=O)O)cc3Cl)c2)n(S(=O)(=O)c2ccc(C(F)F)cc2)c2cccnc12 [8/7] | 100 to 1000 nM |
| N#Cc1sccc1-c1c(-c2cccc(-c3ccc(C(=O)NCCS(=O)(=O)O)cc3Cl)c2)n(S(=O)(=O)c2ccc(C(F)F)cc2)c2ccc(F)cc12 [10/3] | < 100 nM |

biological target: T3, full length (FL) LXRα (Homo sapiens, UniProt Q13133); assay: LXR Gal4 reporter transient transfection assay (FL-M2H Gal4α); type: cell-based; settings: HEK293 cells, full length LXRα; read-out: FL-M2H Gal4α (EC50 range)
T3 construct: the full length (FL) proteins of LXRα (amino acids 1-447); NP005684; expressed in transfected cells; host or cells: HEK293
T3 sequence (Q13133 1-447): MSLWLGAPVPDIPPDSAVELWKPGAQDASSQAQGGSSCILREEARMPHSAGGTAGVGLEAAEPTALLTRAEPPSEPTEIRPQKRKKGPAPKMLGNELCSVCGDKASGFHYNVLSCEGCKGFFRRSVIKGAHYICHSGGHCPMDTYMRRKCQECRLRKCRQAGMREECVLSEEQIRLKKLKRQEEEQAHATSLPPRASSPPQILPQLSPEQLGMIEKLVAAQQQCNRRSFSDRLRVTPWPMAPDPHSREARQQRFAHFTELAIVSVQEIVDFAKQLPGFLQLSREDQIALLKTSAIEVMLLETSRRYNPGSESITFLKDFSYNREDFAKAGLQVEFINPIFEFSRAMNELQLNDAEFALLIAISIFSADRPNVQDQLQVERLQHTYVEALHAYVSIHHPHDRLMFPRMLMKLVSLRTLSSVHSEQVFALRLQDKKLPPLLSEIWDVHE
In short: as §1

| Structure (SMILES) | EC50 |
| --- | --- |
| Cc1ccc(S(=O)(=O)n2c(-c3cccc(C4CC4C(=O)O)c3)c(-c3ccsc3C#N)c3cccnc32)cc1 (stereo not drawn) [4/2] | 100 to 1000 nM |
| Cc1ccc(S(=O)(=O)n2c(-c3cccc(N4CC(C(=O)O)C4)c3)c(-c3ccsc3C#N)c3sccc32)cc1 [4/3] | < 100 nM |
| Cc1ccc(S(=O)(=O)n2c(-c3cccc(-c4ccc(CO)c(S(=O)(=O)CC(=O)O)c4)c3)c(-c3ccsc3C#N)c3ccccc32)cc1 [5/1] | 1000 to 10000 nM |
| Cc1ccc(S(=O)(=O)n2c(-c3cccc(C45CC(C(=O)O)(C4)C5)c3)c(-c3ccsc3C#N)c3ccccc32)cc1 [5/2] | 100 to 1000 nM |
| Cc1ccc(S(=O)(=O)n2c(-c3cccc(C#CC(C)(C)C(=O)O)c3)c(-c3ccsc3C#N)c3cc(F)ccc32)cc1 [5/4] | 100 to 1000 nM |
| Cc1ccc(S(=O)(=O)n2c(-c3cccc(-n4ccc(C(=O)O)cc4=O)c3)c(-c3ccsc3C#N)c3cc(F)ccc32)cc1 [5/5] | 100 to 1000 nM |
| Cc1ccc(S(=O)(=O)n2c(-c3ccnc(-c4ccc(C(=O)O)cc4)c3)c(-c3ccsc3C#N)c3cc(F)ccc32)cc1 [5/6] | < 100 nM |
| N#Cc1sccc1-c1c(-c2cccc(N3CC(C(=O)O)C3)c2)n(S(=O)(=O)c2ccc(Cl)cc2)c2ccc(F)cc12 [5/7] | 100 to 1000 nM |
| COc1ccc(S(=O)(=O)n2c(-c3cccc(N4CC(C(=O)O)C4)c3)c(-c3ccsc3C#N)c3cc(F)ccc32)cn1 [5/8] | 100 to 1000 nM |
| Cc1ccc(S(=O)(=O)n2c(-c3cccc(N4CC[C@@H](C(=O)O)C[C@H]4C)c3)c(-c3ccsc3C#N)c3cc(F)ccc32)cc1 [5/9] | 100 to 1000 nM |
| O=C(O)c1ccc(-c2cccc(-c3c(-c4ncccc4N4CC(O)C4)c4cc(F)ccc4n3S(=O)(=O)c3ccc(C(F)F)cc3)c2)c(Cl)c1 [5/10] | 100 to 1000 nM |
| N#Cc1sccc1-c1c(-c2cccc(C3CC3C(=O)NO)c2)n(S(=O)(=O)c2ccc(Cl)cc2)c2ccccc12 (stereo not drawn) [6/1] | < 100 nM |
| CC(C)(C)OC(=O)CNC(=O)c1ccc(-c2cccc(-c3c(-c4c(C#N)cccc4C#N)c4cc(F)ccc4n3S(=O)(=O)c3ccc(C(F)F)cc3)c2)c(Cl)c1 [6/3] | < 100 nM |
| Cc1ccc(S(=O)(=O)n2c(-c3cccc(-c4ccc(CN(C)C)cc4)c3)c(-c3ccsc3C#N)c3cc(F)ccc32)cc1 [8/1] | < 100 nM |
| O=C(O)c1ccc(-c2cccc(-c3c(-c4ccccc4C4COC4)c4cnccc4n3S(=O)(=O)c3ccc(C(F)F)cc3)c2)c(Cl)c1 [8/3] | 100 to 1000 nM |
| N#Cc1ccccc1-c1c(-c2cccc(-c3ccc(C(=O)O)cc3Cl)c2)n(S(=O)(=O)c2ccc(C(F)F)cc2)c2cccnc12 [8/7] | 100 to 1000 nM |
| N#Cc1sccc1-c1c(-c2cccc(-c3ccc(C(=O)NCCS(=O)(=O)O)cc3Cl)c2)n(S(=O)(=O)c2ccc(C(F)F)cc2)c2ccc(F)cc12 [10/3] | < 100 nM |
